Assay results from US8618169B2, “Derivatives of N-phenylanthranilic acid and 2-benzimidazolone as potassium channel and/or neuron activity modulators” (Ramot at Tel-Aviv University Ltd., priority 2002, dated 2013).
Values joined by “and” are separate entries in the source; they are usually repeats but may differ in a detail not shown here. Equal entries are not always repeated.

Tests used:
KCNQ2/3 channels = biological target: T1, KCNQ2/3 channels (Homo sapiens, UniProt O43525+O43526); test: KCNQ2/3 current in transfected CHO cells, whole-cell patch-clamp; type: cell-based
T1 construct: expressed in transfected cells; host or cells: CHO cells

rat cortical neurons = test: Evoked and spontaneous action potential activity of cultured rat cortical neurons, current-clamp; type: cell-based
M-current = biological target: T2, M-current (Rattus norvegicus, UniProt O88943+O88944); test: Native M-current of cultured rat cortical neurons, voltage-clamp; type: cell-based
T2 construct: the native M-current from pyramidal-like neurons was recorded; endogenous in cells; host or cells: primary cortical neurons from Sprague Dawley rat embryos (E18)

[1] = tested on: electroshock-induced seizures; test: Maximal electroshock seizure (MES) test in ICR mice; type: in vivo
Method: All animals were treated in accordance with the Guide for the Care and Use of Laboratory Animals as adopted and promulgated by the U.S. National Institutes of Health. The procedures followed for experimentation and maintenance of the animals were approved by the animal research ethics committee of Tel Aviv University and in accordance with the Guide for the Care and Use of Laboratory Animals (1996. National Academy of Sciences, Washington D.C). […] electroshock were induced in adult mice by means of two transcorneal electrodes delivering an alternative current of 50 mA at 60 Hz for 0.2 sec using rodent shocker (Hugo Sachs Electronik, type 221). […] The tested compounds were dissolved in 0.9% saline were administered intraperitoneally either 30 minutes or 2 hours before the electroshock was performed. Animals failing to show tonic hind limb extension were scored as protected and were expressed in percentage.
Five groups of 10 ICR mice each received intraperitoneally saline (control) or meclofenamic acid (Compound 1) at 25 mg/kg, 50 mg/kg, 100 mg/kg and 150 mg/kg and were subjected 30 minutes later to an electric shock (50 mA, 0.2 second duration, 60 Hz).
In view of the strong depressing activity of Compound 6 on cortical neurons, the anticonvulsant activity in mice subjected to seizures produced by electroshock was examined, using the MES test described above. Compound 6 dissolved in saline was injected intraperitoneally (in a volume of 10 ml/kg) at doses ranging from 6 mg/kg to 20 mg/kg to ICR adult mice and its anticonvulsant activity was compared with saline. Twenty minutes after drug administration, seizures were produced by electroshock (50 mA, 0.2 second duration, 60 Hz).

KCNQ2/Q3 = KCNQ2/Q3 (Homo sapiens, UniProt O43525+O43526); test: KCNQ2/Q3 current in Xenopus oocytes, two-electrode voltage-clamp; type: cell-based; set-up: expressed in transfected cells; host or cells: Xenopus oocytes (cRNA microinjection); details: for increase of KCNQ2/Q3 currents: at −40 mV
Method: Current measurements in Xenopus oocytes were performed as described in the art [Peretz et al. J. Physiol 545:751-766 (2002)]. Briefly, two-electrode voltage-clamp measurements were performed 3-5 days following cRNA microinjection into oocytes. Oocytes were bathed in a modified ND96 solution containing (in mM): 96 NaCl, 2 KCl, 1 MgCl2, 0.1 CaCl2 and 5 HEPES titrated to pH=7.4 with NaOH. Whole-cell currents were recorded at room temperature (20° C.-22° C.) using a GeneClamp 500 amplifier (Axon Instruments, Foster City, Calif., USA). Glass microelectrodes (A-M Systems, Inc., Carlsborg, Wis., USA) were filled with 3M KCl and had tip resistances of 0.5-1.5 MΩ. Stimulation of the preparation, data acquisition and analyses were performed using the pCLAMP 6.02 software (Axon Instruments, Foster City, Calif., USA) and a 586 personal computer Pentium 4 interfaced with a Digidata 1200 interface (Axon Instruments, Foster City, Calif., USA). Current signals were filtered at 0.5 kHz and digitized at 2 kHz.
Data analysis was performed using the Clampfit program (pClamp 8.1, Axon Instruments, Foster City, Calif., USA), Microsoft Excel 98 (Microsoft Corp., Redmond, Wash., USA), Axograph 4.6 (Axon Instruments, Foster City, Calif., USA) and Prism 2.0 (GraphPad, San Diego, Calif., USA). Leak subtraction was performed off-line, using the Clampfit program of the pClamp 8.1 software. To analyze the KCNQ2/3 channel deactivation, a single exponential fit was applied to the tail currents. Chord conductance (G) was calculated by using the equation: G=I/(V−Vrev) where I corresponds to the current amplitude measured at the end of the pulse and Vrev, the calculated reversal potential assumed to be −90 mV in CHO cells and −98 mV in Xenopus oocytes. G was estimated at various test voltages V and then, normalized to a maximal conductance value, Gmax, calculated at +40 mV. Activation curves were fitted by a Boltzmann distribution: G/Gmax=1/{1+exp[(V50−V)/s]} where V50 is the voltage at which the current is half-activated and s is the slope factor. All data were expressed as mean±SEM. Statistically significant differences were assessed by Student's t-test.
Data are expressed as mean±SEM of 5-8 separate experiments.

[2] = 100 μM, prepulse −20 mV, tail −60 mV

Structure (SMILES): Cc1ccc(Cl)c(Nc2ccccc2C(=O)O)c1Cl [Compound 1, Meclofenamic acid]
- V50 of KCNQ2/3 current activation with compound (KCNQ2/3 channels; 100 μM, CHO cells): −42.34±2.08 mV
- leftward shift in the voltage-dependence of KCNQ2/3 current activation (KCNQ2/3 channels; 100 μM, CHO cells): 22.7 mV
- slope parameter s of the Boltzmann fitting curve (KCNQ2/3 channels; 100 μM, CHO cells): −10.50±0.93 mV/e fold
- increase of the time constant for deactivation (KCNQ2/3 channels; [2]): about 2 fold
- time constant for deactivation τdeact with compound (KCNQ2/3 channels; [2]): 167.5 ± 11.6 ms
- effect on KCNQ2/3 activation kinetics (KCNQ2/3 channels; CHO cells): did not affect
- voltage threshold of KCNQ2/3 current activation upon exposure (KCNQ2/3 channels; CHO cells, control −50 mV): about −60 mV
- increase of KCNQ2/3 current amplitude (KCNQ2/3 channels; at −30 mV, CHO cells): > 2.5 fold
- increase of KCNQ2/3 current amplitude (KCNQ2/3 channels; at −40 mV, CHO cells): > 5 fold
- increase of KCNQ2/3 current amplitude (KCNQ2/3 channels; at −50 mV, CHO cells): more than 10 fold
- increase in KCNQ2/3 current amplitude (KCNQ2/3 channels; potentials around −60/−50 mV): more than 10 fold
- increase of the current amplitude (KCNQ2/3 channels; train protocol, cells stepped to −20 mV): up to 72%
- KCNQ2/3 current amplitude with compound (KCNQ2/3 channels; train protocol, stepped to −20 mV, control 844±130 pA): 1451±164 pA
- effect on spontaneous spiking activity (rat cortical neurons; 10 μM): completely but reversibly inhibited
- number of evoked action potentials with compound (rat cortical neurons; 10 μM, 100 pA depolarizing current for 800 mseconds, control 20±1): 1±1
- effect on evoked potentials (rat cortical neurons; 5-20 μM): reversibly inhibited
- enhancement of the linopirdine-sensitive outward current (M-current; 10 μM, step from −80 mV to −40 mV): 465±134 percents of control
- % Protection ([1]; 50 mg/kg i.p., 30 minutes before electroshock): 17% and 17 (6) %
- % Protection ([1]; 100 mg/kg i.p., 30 minutes before electroshock): 75 (5) %
- % Protection ([1]; 100 mg/kg i.p., 2 hours before electroshock): 25 (4) %
- adverse effect in mice ([1]; 150 mg/kg intraperitoneally): sedation
- % Protection ([1]; 200 mg/kg i.p., 30 minutes before electroshock): toxic
- % Protection ([1]; 200 mg/kg i.p., 2 hours before electroshock): toxic
- mice protected from electroshock ([1]; Example 9: 50 mg/kg intraperitoneally, 30 minutes before shock): 50%
- protection from electroshock seizures ([1]; Example 9: 100 mg/kg intraperitoneally, 30 minutes before shock): fully prevented seizures
- toxic effects at high doses ([1]; mouse, in vivo): pro-convulsive toxic effects and hyperactivity
- leftward shift in the voltage-dependence of KCNQ2/Q3 current activation (KCNQ2/Q3; 25 μM, Xenopus oocytes): −15.9 mV
- V50 of KCNQ2/Q3 current activation with compound (KCNQ2/Q3; 25 μM, Xenopus oocytes, control −28.6±2.9 mV): −44.5±3.1 mV
- increase of KCNQ2/Q3 currents (KCNQ2/Q3; 25 μM): 1.75 fold
- increase in KCNQ2/Q3 current amplitude (KCNQ2/Q3; 25 μM, oocyte membrane stepped from −80 mV to −40 mV): 53±8%
- oocyte resting membrane potential after compound (KCNQ2/Q3; increasing concentrations, from −56±2 mV): −72±3 mV
- EC50 (KCNQ2/Q3; increasing concentrations, read-out: EC50 of hyperpolarization of the oocyte resting membrane potential): 11.7 ± 5.2 µM

Structure (SMILES): O=C(Cc1ccccc1Nc1c(Cl)cccc1Cl)NCCOCCO [Compound 6]
- leftward shift in the voltage-dependence of KCNQ2/3 activation (KCNQ2/3 channels; 25 μM, CHO cells): about 13 mV
- V50 of KCNQ2/3 activation with compound (KCNQ2/3 channels; 25 μM, CHO cells, control −30.9±4.1 mV): −43.45±2.3 mV
- increase of the current amplitude (KCNQ2/3 channels; 25 μM, train protocol, stepped to −50 mV): up to 220%
- effect on deactivation kinetics of KCNQ2/3 channels (KCNQ2/3 channels; CHO cells): slowed down
- EC50 (KCNQ2/3 channels; at −50 mV, CHO cells, read-out: EC50 of concentration-dependent current increase): 7 ± 1 µM
- effect on evoked and spontaneous cortical neuron activity (rat cortical neurons): depress
- effect on spontaneous action potentials (rat cortical neurons; 5 μM-20 μM, within less than 2 minutes): profound depression of spontaneous action potentials
- effect on number of evoked action potentials (rat cortical neurons; 10 μM): reduced drastically and reversibly
- negative shift in the threshold of M-current activation (M-current; cortical neurons, from −50 mV to −70 mV): approximately 20 mV
- ED50 ([1]; Mus musculus, intraperitoneal 6-20 mg/kg, twenty minutes before electroshock, read-out: ED50 of protective effect against seizures): 8.7 mg/kg
- increase of KCNQ2/Q3 currents (KCNQ2/Q3; 25 μM): 1.95 fold
